23 molecules from US20090246293A1 (priority 2008, published 2009) can be followed below.

For test [1], the system named is Plasmopara viticola (PLASVI). Type of test: in vivo. The following applies: for Reduction in percent disease: aldehyde derivative 100 ppm with mancozeb; for Reduction in percent disease / Reduction in percent disease, Formul. I / Reduction in percent disease, Formul. II: PLASVI; for Reduction in percent disease, Formul. I / Reduction in percent disease, Formul. II: Table 21; for Reduction in percent disease, Formul. II: fungicide with Formulation II at 100 ppm.

Test [2] deals with Phytophthora infestans (PHYTIN). Type of test: in vivo.
In test [3] the test system is Pseudoperonospora cubensis (PSPECU). Conditions: in vivo.
Setting [4] is: fungicide with Formulation I at 100 ppm, Table 18.
Setting [5] is: aldehyde derivative 500 ppm with mancozeb, Table 16.
[6] abbreviates: fungicide with Formulation I at 100 ppm, Table 19.
The mark [7] stands for this setting: fungicide with Formulation I at 100 ppm.

Where two headings read alike, the source gives them in different places.

As to `CO/C=C(/C(=O)OC)c1ccccc1Oc1cc(Oc2ccccc2C#N)ncn1` [Azoxystrobin], in test [1] (setting [4]), the “Reduction in percent disease PLASVI” value is reported as “x (0-20% reduction in percent disease)”. Further, the “Reduction in percent disease PHYTIN” value in test [2] (setting [4]) is listed as “xx (21-35% reduction in percent disease)”. In addition, the “effect of Formulation I on the effectiveness of fungicides, PHYTIN” value in test [2] (fungicide with Formulation I at 100 ppm, Table 20) is on record as “xxx (36-50% reduction in percent disease)”. Moreover, in test [3], the “Reduction in percent disease PSPECU” value is given as “x (key: x: 0-20% reduction in percent disease; xx: 21-35% reduction in percent disease; xxx: 36-50% reduction in percent disease; xxxx: >50% reduction in percent disease)” and the “effect of Formulation I on the effectiveness of fungicides, PSPECU” value was “x (key: x: 0-20% reduction in percent disease; xx: 21-35% reduction in percent disease; xxx: 36-50% reduction in percent disease; xxxx: >50% reduction in percent disease)”.

`CC(C)C/C=N/NC(=O)CCCCCCCCC(=O)N/N=C/CC(C)C` [Compound J]: the “Reduction in percent disease” value is recorded as “x (0-20% reduction in percent disease)” in test [1] (Table 15) and “xx (key: x: 0-20% reduction in percent disease; xx: 21-35% reduction in percent disease; xxx: 36-50% reduction in percent disease; xxxx: >50% reduction in percent disease)” in test [3].

`CC(C)C/C=N/NC(=O)c1ccccc1` [Compound I]: the “Reduction in percent disease” value in test [3] is “xx (key: x: 0-20% reduction in percent disease; xx: 21-35% reduction in percent disease; xxx: 36-50% reduction in percent disease; xxxx: >50% reduction in percent disease)”.

In the case of `CC(C)CC=NNC(=O)c1cccc(C(=O)N/N=C/CC(C)C)c1` [Compound C], the “Reduction in percent disease” value is reported as “xx (21-35% reduction in percent disease)” in test [1] (Table 13), “xx (21-35% reduction in percent disease)” in test [1] (Table 15) and “xxx (key: x: 0-20% reduction in percent disease; xx: 21-35% reduction in percent disease; xxx: 36-50% reduction in percent disease; xxxx: >50% reduction in percent disease)” in test [3].

Consider `CCC(C)/C=N/NC(=O)c1cccc(C(=O)N/N=C/C(C)CC)c1` (stereo not drawn) [Compound P], for which the “Reduction in percent disease PLASVI” value in test [1] (setting [5]) is “x (0-20% reduction in percent disease)”. For the same molecule, in test [2] (setting [5]), the “Reduction in percent disease PHYTIN” value is reported as “x (0-20% reduction in percent disease)”. For the same molecule, the “Reduction in percent disease PSPECU” value in test [3] is reported as “x (key: x: 0-20% reduction in percent disease; xx: 21-35% reduction in percent disease; xxx: 36-50% reduction in percent disease; xxxx: >50% reduction in percent disease)”.

In the case of `Cc1ccc(C(C)NC(=O)[C@@H](NC(=O)OC(C)C)C(C)C)cc1` (stereo partly drawn) [Iprovalicarb], in test [1] (setting [6]), the “Reduction in percent disease PLASVI” value is reported as “xx (21-35% reduction in percent disease)”. Moreover, the “Reduction in percent disease PHYTIN” value in test [2] (setting [6]) is on record as “x (0-20% reduction in percent disease)”. Further, in test [3], the “Reduction in percent disease PSPECU” value was “x (key: x: 0-20% reduction in percent disease; xx: 21-35% reduction in percent disease; xxx: 36-50% reduction in percent disease; xxxx: >50% reduction in percent disease)”.

As for `Cc1ccc(-c2c(Cl)nc(C#N)n2S(=O)(=O)N(C)C)cc1` [Cyazofamid], the “Reduction in percent disease, Formul. I” value is “x (0-20% reduction in percent disease)” in test [1] (setting [7]) and “xx (21-35% reduction in percent disease)” in test [2] (PHYTIN, fungicide with Formulation I at 100 ppm, Table 21). Besides, the “Reduction in percent disease, Formul. II” value in test [1] is given as “x (0-20% reduction in percent disease)”; in test [2] (PHYTIN, fungicide with Formulation II at 100 ppm, Table 21), “xxx (36-50% reduction in percent disease)”; in test [3], “x (key: x: 0-20% reduction in percent disease; xx: 21-35% reduction in percent disease; xxx: 36-50% reduction in percent disease; xxxx: >50% reduction in percent disease)”. The “Reduction in percent disease PLASVI” value in test [1] (setting [6]) is given as “x (0-20% reduction in percent disease)”. Moreover, the “Reduction in percent disease PHYTIN” value in test [2] (setting [6]) is “x (0-20% reduction in percent disease)”.

In the case of `CCCOC(=O)NCCCN(C)C` [Propamocarb], in test [1] (setting [4]), the “Reduction in percent disease PLASVI” value is “x (0-20% reduction in percent disease)”. For the same molecule, the “Reduction in percent disease PHYTIN” value in test [2] (setting [4]) is “xx (21-35% reduction in percent disease)”. In addition, the “Reduction in percent disease PSPECU” value in test [3] is “x (key: x: 0-20% reduction in percent disease; xx: 21-35% reduction in percent disease; xxx: 36-50% reduction in percent disease; xxxx: >50% reduction in percent disease)”.

Turning to `CC(=O)N/N=C/CC(C)C` [Compound H], the “Reduction in percent disease” value is “xx (21-35% reduction in percent disease)” in test [1] (Table 13) and “xx (key: x: 0-20% reduction in percent disease; xx: 21-35% reduction in percent disease; xxx: 36-50% reduction in percent disease; xxxx: >50% reduction in percent disease)” in test [3].

As to `CC(C)C/C=N/NC(=O)N/N=C/CC(C)C` [Compound F], the results for the “Reduction in percent disease” value in test [1] (Table 13) and in test [3] were “x (0-20% reduction in percent disease)” and “xx (key: x: 0-20% reduction in percent disease; xx: 21-35% reduction in percent disease; xxx: 36-50% reduction in percent disease; xxxx: >50% reduction in percent disease)”, respectively.

Regarding `CCNc1nc(CC)c(C(=O)NC(C#N)c2cccs2)s1` (stereo not drawn) [Ethaboxam, reference compound], in test [1] (setting [7]), the “Reduction in percent disease, Formul. I” value is “x (0-20% reduction in percent disease)”. Moreover, the “Reduction in percent disease, Formul. II” value in test [1] is given as “x (0-20% reduction in percent disease)”; in test [3] it was “x (key: x: 0-20% reduction in percent disease; xx: 21-35% reduction in percent disease; xxx: 36-50% reduction in percent disease; xxxx: >50% reduction in percent disease)”. Also, the “Reduction in percent disease PLASVI” value in test [1] (setting [6]) was “x (0-20% reduction in percent disease)”. Further, the “Reduction in percent disease PHYTIN” value in test [2] (setting [6]) was “x (0-20% reduction in percent disease)”.

As for `CCNC(=O)NC(=O)/C(C#N)=N/OC` [Cymoxanil], the “Reduction in percent disease PLASVI” value in test [1] (setting [4]) is on record as “x (0-20% reduction in percent disease)”. Moreover, the “Reduction in percent disease PHYTIN” value in test [2] (setting [4]) is listed as “xx (21-35% reduction in percent disease)”. In test [3], the “Reduction in percent disease PSPECU” value is “x (key: x: 0-20% reduction in percent disease; xx: 21-35% reduction in percent disease; xxx: 36-50% reduction in percent disease; xxxx: >50% reduction in percent disease)”.

On to “condensation product of urea and 3,3- dimethylbutyraldehyde [Compound R]”, for which the “Reduction in percent disease PLASVI” value in test [1] (setting [5]) was “x (0-20% reduction in percent disease)”. The “Reduction in percent disease PHYTIN” value in test [2] (setting [5]) is “xx (21-35% reduction in percent disease)”. Besides, in test [3], the “Reduction in percent disease PSPECU” value is “x (key: x: 0-20% reduction in percent disease; xx: 21-35% reduction in percent disease; xxx: 36-50% reduction in percent disease; xxxx: >50% reduction in percent disease)”.

On to `CCCC(=O)N/N=C/CC(C)C` [Compound M], for which the “Reduction in percent disease” value in test [1] (Table 15) is “xx (21-35% reduction in percent disease)”; in test [3], “xxx (key: x: 0-20% reduction in percent disease; xx: 21-35% reduction in percent disease; xxx: 36-50% reduction in percent disease; xxxx: >50% reduction in percent disease)”.

Take `CC(C)C/C=N/NC(=O)C(=O)N/N=C/CC(C)C` [Compound G]: the “Reduction in percent disease” value is “xx (21-35% reduction in percent disease)” in test [1] (Table 13) and “xxx (key: x: 0-20% reduction in percent disease; xx: 21-35% reduction in percent disease; xxx: 36-50% reduction in percent disease; xxxx: >50% reduction in percent disease)” in test [3].

On to `COC(=O)N(OC)c1ccccc1COc1ccn(-c2ccc(Cl)cc2)n1` [Pyraclostrobin], for which the “Reduction in percent disease PHYTIN” value in test [2] (setting [4]) is listed as “x (0-20% reduction in percent disease)”. The “Reduction in percent disease PSPECU” value in test [3] is listed as “x (key: x: 0-20% reduction in percent disease; xx: 21-35% reduction in percent disease; xxx: 36-50% reduction in percent disease; xxxx: >50% reduction in percent disease)”.

With `CCCCCCCCCCCCCCCCCC(=O)NN=CCC(C)C` [Compound L], the “Reduction in percent disease” value is on record as “xxx (36-50% reduction in percent disease)” in test [1] (Table 15) and “xx (key: x: 0-20% reduction in percent disease; xx: 21-35% reduction in percent disease; xxx: 36-50% reduction in percent disease; xxxx: >50% reduction in percent disease)” in test [3].

In the case of `O=C1c2ccccc2C(=O)N1SC(Cl)(Cl)Cl` [Folpet], the “Reduction in percent disease, Formul. I” value in test [2] (PHYTIN, fungicide with Formulation I at 100 ppm of attractant derivative, Table 22) is on record as “x (0-20% reduction in percent disease)”; in test [3], “x (key: x: 0-20% reduction in percent disease; xx: 21-35% reduction in percent disease; xxx: 36-50% reduction in percent disease; xxxx: >50% reduction in percent disease)”.

Regarding `CCCCCCCC(=O)N/N=C/CC(C)C` [Compound K], the “Reduction in percent disease” value in test [1] (Table 15) is on record as “xx (21-35% reduction in percent disease)”; in test [3], “xx (key: x: 0-20% reduction in percent disease; xx: 21-35% reduction in percent disease; xxx: 36-50% reduction in percent disease; xxxx: >50% reduction in percent disease)”.

Turning to `CC(C)C/C=N/NC(=O)CCCC(=O)N/N=C/CC(C)C` [Compound E], the “Reduction in percent disease” value in test [1] (Table 13) is recorded as “xx (21-35% reduction in percent disease)”; in test [3], “xxx (key: x: 0-20% reduction in percent disease; xx: 21-35% reduction in percent disease; xxx: 36-50% reduction in percent disease; xxxx: >50% reduction in percent disease)”.

In the case of `CC(C)C/C=N/NC(=O)CCCCC(=O)N/N=C/CC(C)C` [Compound N], the “Reduction in percent disease” value is recorded as “x (0-20% reduction in percent disease)” in test [1] (Table 15) and “xx (key: x: 0-20% reduction in percent disease; xx: 21-35% reduction in percent disease; xxx: 36-50% reduction in percent disease; xxxx: >50% reduction in percent disease)” in test [3].

Regarding `CC(C)C/C=N/NC(N)=O` [Compound D], the “Reduction in percent disease” value in test [1] (Table 13) is “x (0-20% reduction in percent disease)”; in test [3], “xx (key: x: 0-20% reduction in percent disease; xx: 21-35% reduction in percent disease; xxx: 36-50% reduction in percent disease; xxxx: >50% reduction in percent disease)”.

As for `CO/N=C(/C(=O)OC)c1ccccc1COc1ccccc1C` [Kresoxim-methyl], the “Reduction in percent disease PHYTIN” value in test [2] (setting [4]) is “x (0-20% reduction in percent disease)”. Also, in test [3], the “Reduction in percent disease PSPECU” value is reported as “x (key: x: 0-20% reduction in percent disease; xx: 21-35% reduction in percent disease; xxx: 36-50% reduction in percent disease; xxxx: >50% reduction in percent disease)” and the “Reduction in percent disease, Formul. II” value is listed as “x (key: x: 0-20% reduction in percent disease; xx: 21-35% reduction in percent disease; xxx: 36-50% reduction in percent disease; xxxx: >50% reduction in percent disease)”.
